Tests used:
CXCR7 receptor [1] = target: T1, CXCR7 receptor (Homo sapiens (Human), UniProt P25106); test: Serum Binding Analysis: displacement of 125I-labeled SDF-1 from CXCR7 in 100% human serum; details: 125I SDF-1 displacement in 100% human serum, MCF-7 and/or MDA-MB-435S CXCR7 transfected cells, 3 hrs at 4° C.; read-out: Avg Ser IC50
Description: (§1) The compounds were combined with cells expressing the CXCR7 receptor (e.g., MCF cells or cells transfected to express CXCR7) in the presence of the 125 I-labeled SDF-1 chemokine as detailed in Determination of IC50 values. Reagents and Cells (see below). The ability of the compounds to displace the labeled chemokine from the CXCR7 receptor sites at multiple concentrations was then determined with the screening process.
In Table 1, Avg Bind IC50 refers to the Buffer Binding Analysis described below, while Avg Ser IC50 refers to the Serum Binding Analysis described below. All compounds were prepared as described in the Examples above, or by related methods substituting readily available starting materials.
(§2) ^125I-labeled SDF-1 was purchased from Perkin-Elmer Life Sciences, Inc. (Boston, Mass.). The MCF-7 (adenocarcinoma; mammary gland) cell line was obtained from the American Type Culture Collection (ATCC, Manassas, Va.) or and was cultured in DMEM (Mediatech, Herndon, Va.) supplemented with 10% fetal bovine serum (FBS) (HyClone Logan, Utah) and bovine insulin (0.01 mg/mL) (Sigma. St. Louis, Mo.) at 37° C. in a humidified incubator at a 5% CO2/air mixture. CXCR7 transfected MDA-MB-435S were produced as described below. MDA-MB-435S human breast cancer line, was purchased from ATCC, and cultured in DMEM/10% FBS medium. The complete coding sequence of the gene encoding CXCR7 (a.k.a. CCXCKR2, hRDC1), was isolated from MCF-7 cells using μMACs mRNA isolation kit (Miltenyi Biotec, Auburn, Calif.). DNA contamination was removed by DNase digestion via RNeasy columns (Qiagen, Inc., Valencia, Calif.) and cDNA was generated using GeneAmp RNA PCR Core Kit (Applied Biosystems, Foster City. Calif.). PCR of cDNA samples was performed using Taq PCR Master Mix kit (Qiagen. Inc.) and hRDC1 primers harboring 5′ and 3′ Not I sites (hRDC1F 5′ […]-3, hRDC1R 5′-[…]-3′) Not I digested PCR product was ligated into Not I digested pcDNA3.1(+)(Invitrogen, Carlsbad, Calif.) and screened for orientation and sequence confirmed. Plasmid DNA was then isolated from overnight bacterial cultures by Maxiprep (Qiagen, Inc.). Plasmid DNA (10 μg) was added to MDA-MB-435s cells and cells were electroporated (0.22 kV, 960 uF) via Gene Pulser (Biorad laboratories, Hercules, Calif.). 48 hr post-electroporation, cells were transferred to selection medium (600 ug/ml G418).
In order to more properly assess the binding efficacy of the compounds, radioligand binding assays were carried out in the presence of 100% human serum to more accurately reflect the in vivo environment. […] Target compounds were tested to determine their ability to bind with CXCR7 sites on MCF-7 and/or MDA-MB-435S CXCR7 transfected cells. Efficiency-maxim/zed radioligand binding using filtration protocols as described in Dairaghi D J, et al., HHV8-encoded vMIP-I selectively engages chemokine receptor CCR5. Agonist and antagonist profiles of viral chemokines., J. Biol. Chem. 1999 Jul. 30; 274(31): 21569-74 and Gosling J, et al., Cutting edge: identification of a novel chemokine receptor that binds dendritic cell- and T cell-active chemokines including ELC, SLC, and TECK, J. Immunol. 2000 Mar. 15; 164(6):2851-6 was used.
In these assays, MCF-7 and/or MDA-MB-435S cells were interrogated with the target compounds and the ability of these compounds to displace 125 I radiolabeled SDF-1 was assessed using the protocol described in Dairaghi and Gosling. The target compounds were added to the plate to the indicated concentration followed by addition of cells and radiolabeled chemokine (125I SDF-1), both in the following medium (human AB serum with 10 mM HEPES added to stabilize at pH 7.4). All assays were then incubated for 3 hrs at 4° C. with gentle agitation.

CXCR7 receptor [2] = target: T1, CXCR7 receptor; test: Buffer Binding Analysis: displacement of 125I-labeled SDF-1 from CXCR7; details: 125I SDF-1 displacement, buffer binding medium, MCF-7 and/or MDA-MB-435S CXCR7 transfected cells, 3 hr at 4° C.; read-out: Avg Bind IC50
Description: as §1
Compounds that were deemed effective modulators were able to displace at least 50% of the SDF-1 from the CXCR7 receptor at concentrations at or below 15 micromolar (μM) but >2500 nM (+); and more preferably at concentrations from >500 nM to ≤2500 nM (++). At present, especially preferred compounds can displace at least 50% of the SDF-1 from the CXCR7 receptor at concentrations at or below 500 nM (+++). Exemplary compounds that met these criteria are reproduced in Table 1 and the Examples above. In Table 1, Avg Bind IC50 refers to the Buffer Binding Analysis described below, while Avg Ser IC50 refers to the Serum Binding Analysis described below. All compounds were prepared as described in the Examples above, or by related methods substituting readily available starting materials.
as §2
Target compounds can be tested to determine their ability to bind with CXCR7 sites on MCF-7 and/or MDA-MB-435S CXCR7 transfected cells. Efficiency-maxim/zed radioligand binding using filtration protocols as described in Dairaghi D J, et al., HHV8-encoded vMIP-I selectively engages chemokine receptor CCR5. Agonist and antagonist profiles of viral chemokines., J. Biol. Chem. 1999 Jul. 30; 274(31): 21569-74 and Gosling J. et al., Cutting edge: identification of a novel chemokine receptor that binds dendritic cell-and T cell-active chemokines including ELC. SLC, and TECK., J. Immunol. 2000 Mar. 15; 164(6):2851-6 was used.
In these assays, MCF-7 and/or MDA-MB-435S cells are interrogated with the target compounds and the ability of these compounds to displace ^125I radiolabeled SDF-1 assessed using the protocol described in Dairaghi and Gosling. […]

T1 sequence (P25106 whole entry): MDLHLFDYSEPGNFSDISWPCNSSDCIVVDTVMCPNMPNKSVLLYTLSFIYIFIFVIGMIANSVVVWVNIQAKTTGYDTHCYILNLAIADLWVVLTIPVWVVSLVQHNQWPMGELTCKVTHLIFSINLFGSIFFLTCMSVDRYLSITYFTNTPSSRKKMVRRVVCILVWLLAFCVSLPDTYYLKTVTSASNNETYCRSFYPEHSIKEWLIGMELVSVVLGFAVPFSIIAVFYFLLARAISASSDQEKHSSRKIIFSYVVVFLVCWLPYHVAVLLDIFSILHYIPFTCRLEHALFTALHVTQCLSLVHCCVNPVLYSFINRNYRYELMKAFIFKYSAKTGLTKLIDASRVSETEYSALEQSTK

Row | IC50 (CXCR7 receptor [1]) [nM] | IC50 (CXCR7 receptor [2]) [nM] | Structure (SMILES)
1 | 500 to 2500 |  | CC(C)c1cnc(C(=O)N[C@H]2CCN(c3nccn4cnnc34)C2)nc1 [Compound 1.061]
2 | ≤ 500 |  | O=C(NC1CN(c2nccn3cccc23)C[C@@H]1O)c1ccn(-c2ccc(F)cc2)n1 (some centres unmarked) [Compound 1.062]
3 | 500 to 2500 |  | Cc1cnc(C(=O)N[C@H]2CCN(c3nccn4cccc34)C2)nc1 [Compound 1.063]
4 | ≤ 500 |  | CC(C)c1cnc(C(=O)N[C@H]2CCN(c3nccn4ccnc34)C2)nc1 [Compound 1.064]
5 | ≤ 500 |  | CCc1cnc(C(=O)N[C@H]2CCN(c3nccn4cccc34)C2)nc1 [Compound 1.065]
6 | ≤ 500 |  | O=C(N[C@H]1CCN(c2nccn3cnnc23)C1)c1csc(-c2ccccc2)n1 [Compound 1.066]
7 | ≤ 500 |  | O=C(N[C@H]1CCN(c2nccn3ncnc23)C1)c1ccn(-c2ccc(F)cc2)n1 [Compound 1.067]
8 | ≤ 500 |  | O=C(N[C@H]1CCN(c2nccn3cnnc23)C1)c1coc(-c2ccccc2)n1 [Compound 1.069]
9 | ≤ 500 |  | O=C(N[C@H]1CCN(c2nccn3ccnc23)C1)c1coc(-c2ccccc2)n1 [Compound 1.070]
10 | ≤ 500 |  | O=C(N[C@H]1CCN(c2nccn3cccc23)C1)c1ncc(C2CC2)cn1 [Compound 1.071]
11 | ≤ 500 |  | O=C(NC1(CO)CCN(c2nccn3cccc23)C1)c1csc(N2CCC(O)CC2)n1 (centres unmarked) [Compound 1.072]
12 | ≤ 500 |  | O=C(NC1(CO)CCN(c2nccn3cccc23)C1)c1ccn(-c2ccc(F)cc2)n1 (centres unmarked) [Compound 1.073]
13 | ≤ 500 |  | O=C(NC1(CO)CCN(c2nccn3cccc23)C1)c1ccn(-c2ccc(Cl)cc2)n1 (centres unmarked) [Compound 1.074]
14 | 2500 to 15000 | 500 to 2500 | O=C(N[C@H]1CCN(c2nccn3ccnc23)C1)c1cnc(N2CCC(O)CC2)cn1 [Compound 1.075]
15 | ≤ 500 | ≤ 500 | O=C(N[C@H]1CCN(c2nccn3cccc23)C1)c1ncc(-c2ccc(F)cc2)cn1 [Compound 1.076]
16 | ≤ 500 | ≤ 500 | CC(C)c1cnc(C(=O)N[C@H]2CCN(c3nccn4cccc34)C2)nc1 [Compound 1.077]
17 | ≤ 500 | ≤ 500 | O=C(N[C@H]1CCN(c2nccn3cnnc23)C1)c1csc(N2CCC(O)CC2)n1 [Compound 1.078]
18 | ≤ 500 | ≤ 500 | O=C(N[C@H]1CCN(c2nccn3ccnc23)C1)c1csc(N2CCC(O)CC2)n1 [Compound 1.079]
19 | 500 to 2500 | ≤ 500 | Cc1ccccc1-c1nc(C(=O)N[C@H]2CCN(c3nccn4cccc34)C2)co1 [Compound 1.080]
20 | 500 to 2500 | ≤ 500 | O=C(N[C@H]1CCN(c2nccn3cccc23)C1)c1ccn(-c2ccc(Cl)cn2)n1 [Compound 1.081]
21 | 500 to 2500 | ≤ 500 | O=C(N[C@H]1CCN(c2nccn3cccc23)C1)c1noc(C2CCOCC2)n1 [Compound 1.082]

Row | IC50 (CXCR7 receptor [1]) [nM] | IC50 (CXCR7 receptor [2]) [nM] | Structure (SMILES)
22 | 500 to 2500 | ≤ 500 | O=C(N[C@H]1CCN(c2nccn3cccc23)C1)c1nnc(-c2ccccc2)[nH]1 [Compound 1.083]
23 | ≤ 500 | ≤ 500 | O=C(N[C@H]1CCN(c2nccn3cnnc23)C1)c1ccn(-c2ccc(F)cc2)n1 [Compound 1.084]
24 | ≤ 500 | ≤ 500 | Cc1ccc2nc(C(=O)N[C@H]3CCN(c4nccn5cccc45)C3)ncc2c1 [Compound 1.085]
25 | 500 to 2500 | 500 to 2500 | O=C(N[C@H]1CCN(c2nccn3ccnc23)C1)c1ccn(C2CCOCC2)n1 [Compound 1.086]
26 | 500 to 2500 | 2500 to 15000 | O=C(N[C@H]1CCN(c2nccn3cnnc23)C1)c1ccn(C2CCOCC2)n1 [Compound 1.087]
27 | ≤ 500 | ≤ 500 | O=C(N[C@H]1CCN(c2nccn3cccc23)C1)c1ccn(C2CCOCC2)n1 [Compound 1.088]
28 | ≤ 500 | ≤ 500 | O=C(N[C@H]1CCN(c2nccn3cnnc23)C1)c1ncn(-c2ccc(F)cc2)n1 [Compound 1.089]
29 | ≤ 500 | ≤ 500 | O=C(N[C@H]1CCN(c2nccn3ccnc23)C1)c1ncn(-c2ccccc2)n1 [Compound 1.091]
30 | ≤ 500 | ≤ 500 | O=C(N[C@H]1CCN(c2nccn3ccnc23)C1)c1ccn(-c2ccc(F)cc2)n1 [Compound 1.092]
31 | ≤ 500 | ≤ 500 | O=C(N[C@H]1CCN(c2nccn3cccc23)C1)c1ncc(-c2ccccc2)cn1 [Compound 1.093]
32 | ≤ 500 | ≤ 500 | Cc1cc(Cl)ccc1-n1ccc(C(=O)N[C@H]2CCN(c3nccn4cccc34)C2)n1 [Compound 1.094]
33 | ≤ 500 | ≤ 500 | O=C(N[C@H]1CCN(c2nccn3cccc23)C1)c1coc(-c2ccc(F)cc2)n1 [Compound 1.095]
34 | ≤ 500 | ≤ 500 | O=C(N[C@H]1CCN(c2nccn3cccc23)C1)c1csc(-c2ccc(F)cc2)n1 [Compound 1.096]
35 | ≤ 500 | ≤ 500 | Cc1ccn2ccnc(N3CC[C@H](NC(=O)c4ccn(-c5cccc(F)c5)n4)C3)c12 [Compound 1.099]
36 | 2500 to 15000 | ≤ 500 | Cc1ccn2ccnc(N3CC[C@H](NC(=O)c4ccn(-c5ccc(Cl)c(F)c5)n4)C3)c12 [Compound 1.100]
37 | 500 to 2500 | ≤ 500 | Cc1ccn2ccnc(N3CC[C@H](NC(=O)c4ccn(-c5ccccc5CC#N)n4)C3)c12 [Compound 1.101]
38 | ≤ 500 | ≤ 500 | O=C(N[C@H]1CCN(c2nccn3ccnc23)C1)c1ccn(-c2ccc(Cl)cc2)n1 [Compound 1.102]
39 | 500 to 2500 | ≤ 500 | Cc1cc(Cl)ccc1-n1ccc(C(=O)N[C@H]2CCN(c3nccn4ccc(C)c34)C2)n1 [Compound 1.103]
40 | 2500 to 15000 | ≤ 500 | Cc1ccn2ccnc(N3CC[C@H](NC(=O)c4ccn(-c5ccc(Cl)cc5)n4)C3)c12 [Compound 1.104]
41 | 500 to 2500 | ≤ 500 | Cc1ccn2ccnc(N3CC[C@H](NC(=O)c4csc(-c5ccccc5)n4)C3)c12 [Compound 1.105]
42 | 500 to 2500 | ≤ 500 | Cc1ccn2ccnc(N3CC[C@H](NC(=O)c4ccn(-c5ccc(F)cc5)n4)C3)c12 [Compound 1.106]
